Measurements as given in patent publication US3960845A, “Process for preparing 7β-acylamino-7α-alkoxycephalosporins or 6β-acylamino-6α-alkoxypenicillins” (Sankyo Company Limited, priority 1974, dated 1976).
≈ marks a conversion by molar mass, not a printed value. Read-outs that look alike come from different tables or passages of the source.

Tests used:
Type in all cases: cell-based
[1] = test system: Shigella flexneri Komagome; assay: Minimal inhibitory concentration; conditions: III: Shigella flexneri Komagome; for MIC: read-out: Minimal inhibitory concentration
Excerpt: (§1) Minimal inhibitory concentrations of various microorganisms mcg/ml
III Shigella flexneri Komagome

[2] = test system: Klebsiella neumoniae 846 (CER resistant); assay: Minimal inhibitory concentration; conditions: IV B: Klebsiella neumoniae 846 (CER resistant)
Excerpt: as §1
IV B Klebsiella neumoniae 846 (CER resistant)

[3] = test system: Staphylococcus aureus (CP and PC resistant); assay: Minimal inhibitory concentration; conditions: I B: Staphylococcus aureus (CP and PC resistant)
Excerpt: as §1
1 B Staphylococcus aureus

[4] = test system: broad pathogenic microorganisms; assay: antimicrobial activity; conditions: result in words
Klebsiella neumoniae 806 = assay: Minimal inhibitory concentration; conditions: IV A: Klebsiella neumoniae 806; for MIC: read-out: Minimal inhibitory concentration
Excerpt: as §1
IV A Klebsiella neumoniae 806

[5] = test system: Salmonella enteritidis Gaertner; assay: Minimal inhibitory concentration; conditions: VI: Salmonella enteritidis Gaertner; for MIC: Salmonella enterica, read-out: Minimal inhibitory concentration
Excerpt: as §1
VI Salmonella enteritidis Gaertner

[6] = test system: Staphylococcus aureus 209p; assay: Minimal inhibitory concentration; conditions: I A: Staphylococcus aureus 209p; for MIC: read-out: Minimal inhibitory concentration
Excerpt: as §1
1 A Staphylococcus aureus 209p

[7] = test system: E. coli 609 (CER resistant); assay: Minimal inhibitory concentration; conditions: for MIC: Escherichia coli, read-out: Minimal inhibitory concentration
Excerpt: as §1
II B E. coli 609 (CER resistant)

E. coli NIHJ = assay: Minimal inhibitory concentration; conditions: II A: E. coli NIHJ; for MIC: Escherichia coli
Excerpt: as §1

Proteus vulgaris = assay: Minimal inhibitory concentration; conditions: V: Proteus vulgaris; for MIC: read-out: Minimal inhibitory concentration
Excerpt: as §1

[8] = II B: E. coli 609 (CER resistant)

Structure (SMILES)	MIC [1] [µg/mL]	MIC [2] [µg/mL]	MIC [3] [µg/mL]	antimicrobial activity against broad pathogenic microorganisms [4]	MIC (Klebsiella neumoniae 806) [µg/mL]	MIC [5] [µg/mL]	MIC [6] [µg/mL]	MIC [7] [µg/mL]	MIC (E. coli NIHJ) [µg/mL]	MIC (Proteus vulgaris) [µg/mL]	MIC [7, 8] [µg/mL]	Minimal inhibitory concentration [1] [µg/mL]	Minimal inhibitory concentration [2] [µg/mL]	Minimal inhibitory concentration [3] [µg/mL]	Minimal inhibitory concentration (Klebsiella neumoniae 806) [µg/mL]	Minimal inhibitory concentration [5] [µg/mL]	Minimal inhibitory concentration [6] [µg/mL]	Minimal inhibitory concentration [7, 8] [µg/mL]	Minimal inhibitory concentration (E. coli NIHJ) [µg/mL]	Minimal inhibitory concentration (Proteus vulgaris) [µg/mL]
CO[C@@]1(NC(=O)CSc2nnc[nH]2)C(=O)N2C(C(=O)O)=C(COC(N)=O)CS[C@@H]21 [7β-(1,2,4-triazol-4H-3-yl)thioacetamido-7α-methoxy-3-carbamoyloxymethyl-3-cephem-4-carboxylic acid]	12.5 (≈ 28.1 µM)	> 400	6.2 (≈ 13.9 µM)	excellent antimicrobial activity	6.2 (≈ 13.9 µM)	6.2 (≈ 13.9 µM)	1.5 (≈ 3.37 µM)	12.5 (≈ 28.1 µM)	6.2 (≈ 13.9 µM)	25 (≈ 56.2 µM)										
CO[C@@]1(NC(=O)CSc2nncs2)C(=O)N2C(C(=O)O)=C(CSc3nnnn3C)CS[C@@H]21 [7β-(1,3,4-thiadiazol-2-yl)thioacetamido-7α-methoxy-3-(1-methyl-1H-tetrazol-5-yl)thiomethyl-3-cephem-4-carboxylic acid]	1.5 (≈ 2.9 µM)	> 200	0.8 (≈ 1.55 µM)	excellent antimicrobial activity	1.5 (≈ 2.9 µM)	0.8 (≈ 1.55 µM)	0.4 (≈ 0.774 µM)		1.5 (≈ 2.9 µM)	3.1 (≈ 6 µM)	1.5 (≈ 2.9 µM)									
CO[C@@]1(NC(=O)CSc2nncs2)C(=O)N2C(C(=O)O)=C(COC(C)=O)CS[C@@H]21 [7β-(1,3,4-thiadiazol-2-yl)thioacetamido-7α-methoxy-3-acetoxymethyl-3-cephem-4-carboxylic acid]	6.2 (≈ 13.5 µM)	> 400	1.5 (≈ 3.26 µM)	excellent antimicrobial activity	3.1 (≈ 6.73 µM)	3.4 (≈ 7.38 µM)	0.8 (≈ 1.74 µM)		3.1 (≈ 6.73 µM)	6.2 (≈ 13.5 µM)	6.2 (≈ 13.5 µM)									
CO[C@@]1(NC(=O)CSc2nncs2)C(=O)N2C(C(=O)O)=C(COC(N)=O)CS[C@@H]21 [7β-(1,3,4-thiadiazol-2-yl)thioacetamido-7α-methoxy-3-carbamoyloxymethyl-3-cephem-4-carboxylic acid]	3.1 (≈ 6.72 µM)	> 400	1.5 (≈ 3.25 µM)	excellent antimicrobial activity	3.1 (≈ 6.72 µM)	1.5 (≈ 3.25 µM)	0.4 (≈ 0.867 µM)		3.1 (≈ 6.72 µM)	6.2 (≈ 13.4 µM)	3.1 (≈ 6.72 µM)									
CO[C@@]1(NC(=O)CSc2ccon2)C(=O)N2C(C(=O)O)=C(COC(C)=O)CS[C@@H]21 [7β-(3-isoxazolyl)thioacetamido-7α-methoxy-3-acetoxymethyl-3-cephem-4-carboxylic acid]	6.2 (≈ 14 µM)	> 400	0.8 (≈ 1.8 µM)	excellent antimicrobial activity	3.1 (≈ 6.99 µM)	1.5 (≈ 3.38 µM)	0.2 (≈ 0.451 µM)		3.1 (≈ 6.99 µM)	3.1 (≈ 6.99 µM)	6.2 (≈ 14 µM)									
CO[C@@]1(NC(=O)COc2ccon2)C(=O)N2C(C(=O)O)=C(CSc3nnnn3C)CS[C@@H]21 [7β-(3-isoxazolyloxy)acetamido-7α-methoxy-3-(1-methyl-1H-tetrazol-5-yl)thiomethyl-3-cephem-4-carboxylic acid]				excellent antimicrobial activity								3.1 (≈ 6.41 µM)	> 400	0.8 (≈ 1.65 µM)	3.1 (≈ 6.41 µM)	1.5 (≈ 3.1 µM)	0.2 (≈ 0.414 µM)	3.1 (≈ 6.41 µM)	3.1 (≈ 6.41 µM)	6.2 (≈ 12.8 µM)
